Laboratory results taken from PMC6271731, “Multitarget Molecular Hybrids of Cinnamic Acids” (Molecules, 2014).

Assay: TLC screening for free radical scavengers (DPPH)
Conditions: plates sprayed with 0.1 mM DPPH ethanolic solution
Procedure: TLC was used for screening the synthesized hybrids as radical scavengers. The compound solutions in DMSO were spotted onto a silica gel F254 precoated plate and developed using […] and 95% CHCl3 as developing solvents. After development the plates were air-dried and sprayed with 0.1 mM DPPH ethanolic solution for detecting the compounds with rapid scavenging properties.

CC(Cc1ccc(O)c(O)c1)C(C)Cc1ccc(O)c(O)c1 (stereo not shown) [NDGA, nordihydroguaiaretic acid]
scavenging of DPPH (visual, TLC): white spots on a purple background
